ChEMBL document CHEMBL4804286, “3-amino-4-(4-(4 (dimethylcarbamoyl) phenyl)-1,4-diazepan-1-yl) thieno [2,3-b] pyridine-2-carboxamide for use in cancer therapy and formulations comprising the same” (2020)
Values joined by “and” are separate entries in the source; they are usually repeats but may differ in a detail not shown here. Equal entries are not always repeated. Active and inactive are the calls of the source. The rule behind the calls is not given here.

Key:
[1] = target: Tyrosine-protein kinase Fyn (Homo sapiens) (UniProt P06241); test: Inhibition of human FYN assessed as percent of control at 2000 nM by KINOMEscan assay relative to control; set-up: scale not given: the % may be the effect or the level left
[2] = target: Tyrosine-protein kinase SYK (Homo sapiens) (UniProt P43405); test: Inhibition of human SYK assessed as percent of control at 2000 nM by KINOMEscan assay relative to control; set-up: scale not given: the % may be the effect or the level left
[3] = target: Calcium/calmodulin-dependent protein kinase kinase 1 (Homo sapiens) (UniProt Q8N5S9); test: Inhibition of human CAMKK1 assessed as percent of control at 2000 nM by KINOMEscan assay relative to control; set-up: scale not given: the % may be the effect or the level left
[4] = target: Tyrosine-protein kinase Yes (Homo sapiens) (UniProt P07947); test: Inhibition of human YES assessed as percent of control at 2000 nM by KINOMEscan assay relative to control; set-up: scale not given: the % may be the effect or the level left
[5] = target: Casein kinase I isoform alpha (Homo sapiens) (UniProt P48729); test: Inhibition of human CSNK1A1 assessed as percent of control at 2000 nM by KINOMEscan assay relative to control; set-up: scale not given: the % may be the effect or the level left; conditions: INHIBITOR
[6] = test system: Serine/threonine-protein kinase B-raf (Homo sapiens), P15056 [V600E]; test: Inhibition of human BRAF V600E mutant assessed as percent of control at 2000 nM by KINOMEscan assay relative to control; set-up: scale not given: the % may be the effect or the level left
[7] = target: Tyrosine-protein kinase receptor TYRO3 (Homo sapiens) (UniProt Q06418); test: Inhibition of human TYRO3 assessed as percent of control at 2000 nM by KINOMEscan assay relative to control; set-up: scale not given: the % may be the effect or the level left
[8] = target: Serine/threonine-protein kinase LATS2 (Homo sapiens) (UniProt Q9NRM7); test: Inhibition of human LATS2 assessed as percent of control at 2000 nM by KINOMEscan assay relative to control; set-up: scale not given: the % may be the effect or the level left
[9] = target: Activin receptor type-2A (Homo sapiens) (UniProt P27037); test: Inhibition of human ACVR2A assessed as percent of control at 2000 nM by KINOMEscan assay relative to control; set-up: scale not given: the % may be the effect or the level left
[10] = test system: Tyrosine-protein kinase ABL1 (Homo sapiens), P00519 [F317L]; test: Inhibition of phosphorylated human ABL1 F317L mutant assessed as percent of control at 2000 nM by KINOMEscan assay relative to control; set-up: scale not given: the % may be the effect or the level left
[11] = target: RAC-alpha serine/threonine-protein kinase (Homo sapiens) (UniProt P31749); test: Inhibition of human AKT1 assessed as percent of control at 2000 nM by KINOMEscan assay relative to control; set-up: scale not given: the % may be the effect or the level left
[12] = target: Tyrosine-protein kinase ABL2 (Homo sapiens) (UniProt P42684); test: Inhibition of human ABL2 assessed as percent of control at 2000 nM by KINOMEscan assay relative to control; set-up: scale not given: the % may be the effect or the level left
[13] = target: Phosphorylase b kinase gamma catalytic chain, liver/testis isoform (Homo sapiens) (UniProt P15735); test: Inhibition of human PHKG2 assessed as percent of control at 2000 nM by KINOMEscan assay relative to control; set-up: scale not given: the % may be the effect or the level left
[14] = target: Serine/threonine-protein kinase Nek3 (Homo sapiens) (UniProt P51956); test: Inhibition of human NEK3 assessed as percent of control at 2000 nM by KINOMEscan assay relative to control; set-up: scale not given: the % may be the effect or the level left
[15] = target: cGMP-dependent protein kinase 2 (Homo sapiens) (UniProt Q13237); test: Inhibition of human PRKG2 assessed as percent of control at 2000 nM by KINOMEscan assay relative to control; set-up: scale not given: the % may be the effect or the level left
[16] = target: Mitogen-activated protein kinase kinase kinase 14 (Homo sapiens) (UniProt Q99558); test: Inhibition of human NIK assessed as percent of control at 2000 nM by KINOMEscan assay relative to control; set-up: scale not given: the % may be the effect or the level left
[17] = target: Macrophage colony-stimulating factor 1 receptor (Homo sapiens) (UniProt P07333); test: Inhibition of human CSF1R assessed as percent of control at 2000 nM by KINOMEscan assay relative to control; set-up: scale not given: the % may be the effect or the level left
[18] = target: Tyrosine-protein kinase Mer (Homo sapiens) (UniProt Q12866); test: Inhibition of human MERTK assessed as percent of control at 2000 nM by KINOMEscan assay relative to control; set-up: scale not given: the % may be the effect or the level left
[19] = test system: Tyrosine-protein kinase ABL1 (Homo sapiens), P00519 [T315I]; test: Inhibition of non-phosphorylated human ABL1 T315I mutant assessed as percent of control at 2000 nM by KINOMEscan assay relative to control; set-up: scale not given: the % may be the effect or the level left
[20] = target: Ephrin type-B receptor 4 (Homo sapiens) (UniProt P54760); test: Inhibition of human EPHB4 assessed as percent of control at 2000 nM by KINOMEscan assay relative to control; set-up: scale not given: the % may be the effect or the level left
[21] = target: Mitogen-activated protein kinase kinase kinase kinase 2 (Homo sapiens) (UniProt Q12851); test: Inhibition of human MAP4K2 assessed as percent of control at 2000 nM by KINOMEscan assay relative to control; set-up: scale not given: the % may be the effect or the level left
[22] = target: Serine/threonine-protein kinase PAK 3 (Homo sapiens) (UniProt O75914); test: Inhibition of human PAK3 assessed as percent of control at 2000 nM by KINOMEscan assay relative to control; set-up: scale not given: the % may be the effect or the level left
[23] = target: Mast/stem cell growth factor receptor Kit (Homo sapiens) (UniProt P10721); test: Inhibition of human KIT assessed as percent of control at 2000 nM by KINOMEscan assay relative to control; set-up: scale not given: the % may be the effect or the level left
[24] = target: Serine/threonine-protein kinase BRSK2 (Homo sapiens) (UniProt Q8IWQ3); test: Inhibition of human BRSK2 assessed as percent of control at 2000 nM by KINOMEscan assay relative to control; set-up: scale not given: the % may be the effect or the level left
[25] = target: Serine/threonine-protein kinase 33 (Homo sapiens) (UniProt Q9BYT3); test: Inhibition of human STK33 assessed as percent of control at 2000 nM by KINOMEscan assay relative to control; set-up: scale not given: the % may be the effect or the level left
[26] = target: Tyrosine-protein kinase Lck (Homo sapiens) (UniProt P06239); test: Inhibition of human LCK assessed as percent of control at 2000 nM by KINOMEscan assay relative to control; set-up: scale not given: the % may be the effect or the level left
[27] = test system: Myc-CaP; test: Inhibition of colony formation in murine castration-resistant Myc-CaP cells at 1 uM by clonogenic assay; format: functional; conditions: Mus musculus
[28] = target: Tyrosine-protein kinase TXK (Homo sapiens) (UniProt P42681); test: Inhibition of human TXK assessed as percent of control at 2000 nM by KINOMEscan assay relative to control; set-up: scale not given: the % may be the effect or the level left
[29] = target: Membrane-associated tyrosine- and threonine-specific cdc2-inhibitory kinase (Homo sapiens) (UniProt Q99640); test: Inhibition of human PKMYT1 assessed as percent of control at 2000 nM by KINOMEscan assay relative to control; set-up: scale not given: the % may be the effect or the level left
[30] = target: Tyrosine-protein kinase Srms (Homo sapiens) (UniProt Q9H3Y6); test: Inhibition of human SRMS assessed as percent of control at 2000 nM by KINOMEscan assay relative to control; set-up: scale not given: the % may be the effect or the level left
[31] = target: Serine/threonine-protein kinase 24 (Homo sapiens) (UniProt Q9Y6E0); test: Inhibition of human MST3 assessed as percent of control at 2000 nM by KINOMEscan assay relative to control; set-up: scale not given: the % may be the effect or the level left

Sequence of Mitogen-activated protein kinase kinase kinase kinase 2 (Homo sapiens) (Q12851 whole entry): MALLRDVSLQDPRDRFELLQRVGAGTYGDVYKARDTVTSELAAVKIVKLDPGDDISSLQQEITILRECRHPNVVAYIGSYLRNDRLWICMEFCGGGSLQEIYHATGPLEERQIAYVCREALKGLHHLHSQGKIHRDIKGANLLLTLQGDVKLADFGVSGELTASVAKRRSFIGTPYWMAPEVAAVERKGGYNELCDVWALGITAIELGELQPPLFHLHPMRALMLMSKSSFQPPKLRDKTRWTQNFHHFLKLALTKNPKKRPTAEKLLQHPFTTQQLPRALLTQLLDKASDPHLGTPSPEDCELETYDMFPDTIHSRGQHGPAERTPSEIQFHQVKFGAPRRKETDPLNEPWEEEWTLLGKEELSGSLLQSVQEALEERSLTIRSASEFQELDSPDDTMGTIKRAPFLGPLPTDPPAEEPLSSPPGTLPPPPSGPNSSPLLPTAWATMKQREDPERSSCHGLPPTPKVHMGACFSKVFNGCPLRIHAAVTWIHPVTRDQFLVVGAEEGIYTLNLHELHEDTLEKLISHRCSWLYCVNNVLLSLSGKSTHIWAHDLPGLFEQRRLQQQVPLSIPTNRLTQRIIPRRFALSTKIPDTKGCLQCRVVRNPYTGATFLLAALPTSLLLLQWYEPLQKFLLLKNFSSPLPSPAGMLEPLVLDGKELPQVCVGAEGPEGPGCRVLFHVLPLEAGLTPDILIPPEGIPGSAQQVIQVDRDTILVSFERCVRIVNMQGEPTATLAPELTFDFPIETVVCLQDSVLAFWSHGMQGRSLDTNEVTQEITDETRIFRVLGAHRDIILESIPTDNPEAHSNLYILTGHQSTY
Sequence of Serine/threonine-protein kinase Nek3 (Homo sapiens) (P51956 whole entry): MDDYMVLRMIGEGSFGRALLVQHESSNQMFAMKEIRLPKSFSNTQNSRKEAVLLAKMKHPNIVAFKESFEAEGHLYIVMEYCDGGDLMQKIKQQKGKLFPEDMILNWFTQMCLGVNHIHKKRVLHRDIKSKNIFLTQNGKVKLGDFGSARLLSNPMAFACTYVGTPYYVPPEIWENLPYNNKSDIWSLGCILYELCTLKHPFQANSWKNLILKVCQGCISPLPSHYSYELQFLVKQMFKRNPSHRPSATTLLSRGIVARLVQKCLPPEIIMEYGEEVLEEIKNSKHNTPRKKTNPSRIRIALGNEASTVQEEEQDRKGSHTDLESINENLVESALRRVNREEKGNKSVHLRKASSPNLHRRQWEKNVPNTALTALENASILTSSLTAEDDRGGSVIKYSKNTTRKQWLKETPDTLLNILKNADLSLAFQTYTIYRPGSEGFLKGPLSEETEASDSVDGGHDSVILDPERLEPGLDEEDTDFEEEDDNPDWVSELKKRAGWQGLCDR
Sequence of Tyrosine-protein kinase Yes (Homo sapiens) (P07947 2-543 limits assumed): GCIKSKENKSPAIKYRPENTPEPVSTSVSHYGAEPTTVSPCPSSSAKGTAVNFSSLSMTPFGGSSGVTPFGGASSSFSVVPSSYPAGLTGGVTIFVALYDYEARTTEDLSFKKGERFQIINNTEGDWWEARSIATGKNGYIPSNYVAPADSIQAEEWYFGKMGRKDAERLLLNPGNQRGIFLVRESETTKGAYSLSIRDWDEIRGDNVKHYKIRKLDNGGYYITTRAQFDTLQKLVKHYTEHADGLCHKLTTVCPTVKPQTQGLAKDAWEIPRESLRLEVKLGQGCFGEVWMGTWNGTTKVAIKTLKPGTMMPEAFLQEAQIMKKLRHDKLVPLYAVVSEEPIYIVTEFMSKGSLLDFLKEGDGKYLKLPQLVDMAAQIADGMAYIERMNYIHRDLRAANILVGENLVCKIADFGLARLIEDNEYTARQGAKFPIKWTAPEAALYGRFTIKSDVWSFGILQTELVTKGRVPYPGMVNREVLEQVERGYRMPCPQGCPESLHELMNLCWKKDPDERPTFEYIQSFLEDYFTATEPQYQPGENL
Sequence of Serine/threonine-protein kinase LATS2 (Homo sapiens) (Q9NRM7 whole entry): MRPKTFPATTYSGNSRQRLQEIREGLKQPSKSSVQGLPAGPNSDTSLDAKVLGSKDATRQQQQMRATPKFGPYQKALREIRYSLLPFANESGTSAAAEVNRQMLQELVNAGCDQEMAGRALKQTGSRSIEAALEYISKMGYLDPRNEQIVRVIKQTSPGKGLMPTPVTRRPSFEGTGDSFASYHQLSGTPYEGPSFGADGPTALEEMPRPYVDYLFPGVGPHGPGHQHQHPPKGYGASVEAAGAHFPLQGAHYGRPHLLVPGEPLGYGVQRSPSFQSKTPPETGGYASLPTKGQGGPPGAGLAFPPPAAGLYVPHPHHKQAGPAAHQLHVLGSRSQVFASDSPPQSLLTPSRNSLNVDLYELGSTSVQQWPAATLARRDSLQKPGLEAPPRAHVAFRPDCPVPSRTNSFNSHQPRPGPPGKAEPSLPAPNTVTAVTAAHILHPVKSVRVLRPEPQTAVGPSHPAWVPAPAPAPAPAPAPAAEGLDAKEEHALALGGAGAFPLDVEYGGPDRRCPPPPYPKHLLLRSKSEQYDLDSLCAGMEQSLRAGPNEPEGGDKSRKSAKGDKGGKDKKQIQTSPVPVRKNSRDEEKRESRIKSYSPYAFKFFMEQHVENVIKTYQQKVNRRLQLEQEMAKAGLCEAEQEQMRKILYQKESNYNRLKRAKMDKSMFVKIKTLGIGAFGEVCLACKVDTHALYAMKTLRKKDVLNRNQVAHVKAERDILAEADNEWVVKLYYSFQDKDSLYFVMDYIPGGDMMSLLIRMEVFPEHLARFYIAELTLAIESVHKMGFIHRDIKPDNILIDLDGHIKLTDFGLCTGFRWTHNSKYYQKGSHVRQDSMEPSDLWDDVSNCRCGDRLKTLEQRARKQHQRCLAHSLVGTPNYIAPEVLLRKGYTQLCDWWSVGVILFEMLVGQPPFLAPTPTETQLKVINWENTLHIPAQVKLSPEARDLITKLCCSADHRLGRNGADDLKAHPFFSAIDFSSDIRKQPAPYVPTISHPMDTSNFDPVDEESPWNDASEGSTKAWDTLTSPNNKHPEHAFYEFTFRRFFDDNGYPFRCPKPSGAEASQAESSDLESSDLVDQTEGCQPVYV
Sequence of Tyrosine-protein kinase Lck (Homo sapiens) (P06239 2-509 limits assumed): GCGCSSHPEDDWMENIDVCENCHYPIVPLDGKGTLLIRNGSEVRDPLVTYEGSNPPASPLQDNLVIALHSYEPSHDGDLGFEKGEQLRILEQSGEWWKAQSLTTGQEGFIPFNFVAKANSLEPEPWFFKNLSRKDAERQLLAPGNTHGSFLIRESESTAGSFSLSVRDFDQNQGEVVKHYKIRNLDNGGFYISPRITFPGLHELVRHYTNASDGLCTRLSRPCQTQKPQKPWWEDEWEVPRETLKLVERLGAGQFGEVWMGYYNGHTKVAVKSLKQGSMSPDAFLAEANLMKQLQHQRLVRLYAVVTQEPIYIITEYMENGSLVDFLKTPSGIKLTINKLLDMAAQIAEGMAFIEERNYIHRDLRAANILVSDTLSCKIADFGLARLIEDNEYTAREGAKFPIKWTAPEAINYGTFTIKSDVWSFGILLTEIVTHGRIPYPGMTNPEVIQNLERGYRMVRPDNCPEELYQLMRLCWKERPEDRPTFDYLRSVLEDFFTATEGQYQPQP
Sequence of Mast/stem cell growth factor receptor Kit (Homo sapiens) (P10721 whole entry): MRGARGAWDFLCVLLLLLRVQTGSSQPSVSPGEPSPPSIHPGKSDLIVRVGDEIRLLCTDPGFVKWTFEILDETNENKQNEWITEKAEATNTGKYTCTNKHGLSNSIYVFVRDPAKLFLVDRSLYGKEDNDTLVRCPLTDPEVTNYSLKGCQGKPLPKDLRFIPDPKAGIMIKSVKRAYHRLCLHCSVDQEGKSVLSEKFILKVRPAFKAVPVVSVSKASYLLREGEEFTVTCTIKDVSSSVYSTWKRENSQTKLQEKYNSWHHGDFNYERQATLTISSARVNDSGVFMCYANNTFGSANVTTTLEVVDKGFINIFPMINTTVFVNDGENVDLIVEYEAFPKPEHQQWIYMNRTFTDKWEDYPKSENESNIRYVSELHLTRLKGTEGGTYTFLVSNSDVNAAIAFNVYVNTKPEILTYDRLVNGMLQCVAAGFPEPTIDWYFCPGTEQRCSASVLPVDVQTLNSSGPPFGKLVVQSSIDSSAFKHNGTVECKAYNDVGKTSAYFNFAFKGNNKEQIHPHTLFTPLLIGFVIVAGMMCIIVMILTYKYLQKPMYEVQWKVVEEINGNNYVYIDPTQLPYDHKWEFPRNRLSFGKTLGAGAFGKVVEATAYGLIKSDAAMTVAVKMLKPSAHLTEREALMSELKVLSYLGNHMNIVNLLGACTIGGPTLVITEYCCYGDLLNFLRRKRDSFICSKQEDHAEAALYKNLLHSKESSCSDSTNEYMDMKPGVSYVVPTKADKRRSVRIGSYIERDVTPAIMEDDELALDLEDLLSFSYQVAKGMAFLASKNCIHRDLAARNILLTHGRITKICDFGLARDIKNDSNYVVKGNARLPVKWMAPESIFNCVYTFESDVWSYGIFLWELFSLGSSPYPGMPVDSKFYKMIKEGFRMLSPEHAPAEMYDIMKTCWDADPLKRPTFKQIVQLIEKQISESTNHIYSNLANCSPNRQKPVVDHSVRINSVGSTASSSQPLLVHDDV
Sequence of Tyrosine-protein kinase Srms (Homo sapiens) (Q9H3Y6 whole entry): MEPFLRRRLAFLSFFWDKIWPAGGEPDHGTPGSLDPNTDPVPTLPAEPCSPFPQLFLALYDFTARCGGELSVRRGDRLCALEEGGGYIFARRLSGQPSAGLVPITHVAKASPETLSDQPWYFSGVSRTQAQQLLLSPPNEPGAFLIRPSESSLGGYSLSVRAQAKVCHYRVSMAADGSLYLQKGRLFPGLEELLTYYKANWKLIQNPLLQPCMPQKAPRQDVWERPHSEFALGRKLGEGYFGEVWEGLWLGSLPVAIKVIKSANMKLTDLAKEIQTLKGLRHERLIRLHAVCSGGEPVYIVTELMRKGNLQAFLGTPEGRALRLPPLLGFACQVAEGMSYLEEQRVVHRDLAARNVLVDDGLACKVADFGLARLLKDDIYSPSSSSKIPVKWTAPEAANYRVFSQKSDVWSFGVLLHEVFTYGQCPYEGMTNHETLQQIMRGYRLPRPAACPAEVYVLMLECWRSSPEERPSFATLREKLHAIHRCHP

CN(C)C(=O)c1ccc(N2CCCN(c3ccnc4sc(C(N)=O)c(N)c34)CC2)cc1
Activity [1]: 99% and 97%
Activity [2]: 95% and 100%
Activity [3]: 96% and 100%
Activity [4]: 99% and 100%
Activity [5]: 33% and 12%
Activity [6]: 100% and 84%
Activity [7]: 100%
Activity [8]: 94%
Activity ([8]; INHIBITOR): 31%
Activity [9]: 95% and 92%
Activity [10]: 97% and 82%
Activity [11]: 100%
Activity [12]: 85% and 91%
Activity [13]: 86% and 83%
Activity [14]: 100% and 76%
Activity [15]: 98% and 90%
Activity [16]: 100% and 97%
Activity [17]: 98% and 95%
Activity [18]: 89% and 100%
Activity [19]: 90% and 78%
Activity [20]: 100%
Activity [21]: 84% and 66%
Activity [22]: 80%
Activity ([22]; INHIBITOR): 40%
Activity [23]: 95%
Activity [24]: 100%
Activity [25]: 100%
Activity [26]: 91% and 100%
inhibition [27]: Active
Activity [28]: 93% and 100%
Activity [29]: 91% and 94%
Activity [30]: 81% and 93%
Activity [31]: 97% and 84%
